Assay results as given in a melting point compilation (Tetko et al.; mined from patent text by program, amines drawn as free bases though some values may be those of a salt).

Compound `C=C(C)CN1CCN(CCC(=O)N2c3ccccc3C(=O)Nc3cccnc32)CC1` has a melting point of 210 to 211 °C.
For `COC(=O)c1cccc2nc(OCC(F)(F)F)n(Cc3ccc(-c4ccccc4C#N)cc3)c12`, the melting point was 143 to 145 °C.
Compound `COc1ccc(SC)c2c1CC(=O)CC2` has a melting point of 88 to 90 °C.
Compound `CN1CCN(C)CC(OC(=O)c2n[nH]c3ccccc23)C1` has a melting point of 184 to 185 °C.
In the case of `O=C(c1ccccc1)c1ccc([N+](=O)[O-])c(CO)c1`, the melting point is reported as 71.3 °C.
With `O=C(Nc1ccc(S(=O)(=O)c2ccccn2)cc1)C(O)(C(F)F)C(F)F` the melting point was 200 to 202 °C.
In the case of `CCc1cc(N(C)Cc2ccc3oc(-c4ccccc4C#N)cc3c2)n2nccc2n1`, the melting point is reported as 143 °C.
For `CCN(CC)C(=O)c1cc(-c2ccc(Cl)cc2)c2ccsc2c1`, the melting point was 135 °C.
With `COC(=O)c1nc(-c2cc(N)c(Cl)cc2F)cc(N)c1Cl` the melting point was 99 to 101 °C.
`CS(=O)(=O)Nc1ccc(C(=O)N[C@@H](Cc2ccc(-c3ccccc3C(F)(F)F)cc2)C(=O)O)c(Cl)c1` gave a melting point of 114 °C.
Compound `Nc1cccc(Oc2ccc(C(=O)c3ccc(C#Cc4ccccc4)cc3)cc2)c1` has a melting point of 137 to 139 °C.
Work on `COC(=O)Cc1cc(OC)ccc1OCc1ccc(OCc2nc(-c3ccccc3)oc2C)cc1` yielded a melting point of 160 to 161 °C.
`Cc1nnc(-c2ccccc2O)o1` gave a melting point of 74 to 76 °C.
For `CNCCCN(C)C(=O)[C@@H]1CCCN1S(=O)(=O)c1ccc(Cl)c(COc2cccc3c(-n4ccnc4)cc(C)nc23)c1Cl`, the melting point was 125 °C.
Work on `Cc1ccc2c(-c3ccccc3)c([N+](=O)[O-])oc2c1` yielded a melting point of 142 to 144 °C.
With `CCCCc1nc2cccc(C(=O)O)c2n1Cc1ccc(-c2ccccc2S(=O)(=O)NC(=O)NCC2CC2)cc1` the melting point was 234 to 236 °C.
`O=c1c([N+](=O)[O-])c[nH]n1-c1c(Cl)cc(C(F)(F)F)cc1Cl` showed a melting point of 100 to 108 °C.
`O=[N+]([O-])c1c(Cl)c(Cl)cc2c1OC(F)(F)O2` gave a melting point of 29 to 30 °C.
`CN1c2ccccc2CN(C(=O)C(F)(F)F)c2ccccc21` gave a melting point of 104 to 106 °C.
`Nc1nnc(N2CCN(Cc3ccncc3)CC2)[nH]1` showed a melting point of 191 to 193 °C.
Work on `COc1c(N2CC3CCC3(NC(=O)OC(C)(C)C)C2)c(F)cc2c(=O)c(C(=O)O)cn(C3CC3)c12` (stereo unspecified) yielded a melting point of 211 to 213 °C.
`CCOC(=O)C(O)=Cc1ncc(CCc2ccc(F)cc2)cn1` showed a melting point of 133 to 134 °C.
In the case of `CCC(=O)NCCC1CCc2cc(F)c3c(c21)C=CCO3` (stereo unspecified), the melting point is reported as 106 to 108 °C.
For `O=C1c2ccccc2C(=O)c2sccc21`, the melting point was 232 to 234 °C.
Compound `CCCCCCn1c2ccccc2c2ccc(CO)cc21` has a melting point of 54 to 55 °C.
`CCOC(=O)C(CC(=O)c1ccc(Oc2ccccc2)cc1)SC(=O)c1ccccc1` (stereo unspecified) gave a melting point of 95 to 96 °C.
In the case of `CN(C(=O)c1ccc2c(c1)nc(NC(=O)c1cccs1)n2CCCOC(=O)c1cccs1)C1CCCCC1`, the melting point is reported as 92 to 94 °C.
Compound `COc1ccccc1-c1ccccc1/C=C/C1CC(O)CC(=O)O1` (stereo unspecified) has a melting point of 129 to 131 °C.
Work on `Cc1ccc2c(c1)C=Cc1ncccc1C2c1cn(C)c(=O)[nH]c1=S` (stereo unspecified) yielded a melting point of 157 to 160 °C.
`CC(=O)c1c(O)cccc1OCC(F)COc1cccc(O)c1C(C)=O` showed a melting point of 162 to 165 °C.
For `Cc1cc(OC(F)F)ccc1NC(=O)c1cccc(N)c1C(=O)NC(C)C`, the melting point was 148 to 149 °C.
`CCCCC1=CC(O)(C(Br)Br)N(Cc2ccccc2)C1=O` (stereo unspecified) gave a melting point of 92 to 93 °C.
Compound `CC(C)c1cccc(C(C)C)c1NC(=O)NCC1(c2ccc(-c3ccccc3)cc2)CCC1` has a melting point of 177 to 179 °C.
For `N#CC1=C(C2CC2)Nc2n[nH]cc2C1c1cccc(C#N)c1Br` (stereo unspecified), the melting point was greater than 250 °C.
For `Cc1ccc(Nc2nnc(-c3ccc(N4CCOCC4)c([N+](=O)[O-])c3)s2)cc1Cl`, the melting point was 268 to 269 °C.
For `Cc1c(O[Si](C)(C)C(C)(C)C)cc(O[Si](C)(C)C(C)(C)C)c(C)c1C(=O)OCc1ccc([N+](=O)[O-])cc1`, the melting point was 121 to 122 °C.
In the case of `O=S(=O)(NCc1ccccc1)c1ccc(Br)cc1`, the melting point is reported as 116 to 117 °C.
`O=C(NCCO[N+](=O)[O-])c1ccsc1` showed a melting point of 100 to 102 °C.
`CC1(C)CC(=O)C2=C(C1)NC1=C(C(=O)CC(C)(C)C1)C2c1ccc([N+](=O)[O-])c(OCc2ccccc2)c1` gave a melting point of 239 to 240 °C.
`O=C(Cc1cccc2ccccc12)Nc1cc([C@H]2C[C@@H](Oc3nc4ccccc4o3)C2)[nH]n1` showed a melting point of 142 °C.
For `COc1cc(C(=O)NCCc2ccc(F)cc2)cnc1C(=O)O`, the melting point was 110 °C.
`CCOC(=O)CCCSc1nccc(NC(=S)NCC(F)(F)F)n1` showed a melting point of 104 to 106 °C.
Compound `CCCC[C@@H](NC(=O)[C@H](Cc1ccc(O)cc1)NC(=O)OC(C)(C)C)C(=O)NCC(=O)OCc1ccccc1` has a melting point of 122 °C.
`CCN(CCO)c1ccc(I)cc1` showed a melting point of 53 to 54 °C.
Compound `COc1cc(OC)c2c(=O)[nH]c(-c3ccc(OC)c(-c4ccc(S(C)(=O)=O)cc4)n3)nc2c1` has a melting point of 279 to 281 °C.
With `Oc1cccc(C=C2c3ccc(Cl)cc3CCc3cccnc32)c1` the melting point was 221 °C.
In the case of `CCCC1(CC(=O)O)OCCc2c1[nH]c1c(C)ccc(C(=O)NC)c21` (stereo unspecified), the melting point is reported as 89 to 91 °C.
Work on `CC(=O)NCc1ccc(C(=O)CCCN2CCC(c3noc4cc(F)ccc34)CC2)s1` yielded a melting point of 140 to 142 °C.
For `CCC(C)(C)OC(=O)NC(C)(Cc1c[nH]c2ccccc12)C(=O)NCCc1ccncc1` (stereo unspecified), the melting point was 138 to 141 °C.
Work on `CCC(C(=O)N(CC)CC)n1ccc(-c2ccccc2)n1` (stereo unspecified) yielded a melting point of 63 to 66 °C.
In the case of `CCCCCc1ccc(-c2ncc(O)cn2)c(F)c1F`, the melting point is reported as 104 to 105 °C.
For `Cn1ncc2[nH]c3ccc(NC(=O)c4ccccc4)cc3c(=O)c21`, the melting point was greater than 300 °C.
`CCCCOC(=O)[C@H](Cc1ccc(O)cc1)NC(=O)C1(NC(=O)[C@@H](S)C(C)C)CCCC1` gave a melting point of 182 to 183 °C.
`Cc1[nH]cnc1CN1CCc2c(c3cccc(OCc4ccccc4)c3n2COCc2ccccc2)C1=O` gave a melting point of 170 to 172 °C.
Work on `CCCCCCC(=N)NC(=S)Nc1ccc(Cl)cc1` yielded a melting point of 112 to 113 °C.
Work on `COc1cc(C2=NNC(=O)Cc3cc4c(cc32)OCO4)ccc1N` yielded a melting point of 147 to 150 °C.
`N#CC1=C(C#N)Sc2nc3cc(C(F)(F)F)ccc3nc2S1` showed a melting point of 197 to 199 °C.
In the case of `O=C(Nc1ccc(Cl)cn1)c1cc(F)ccc1NCC1CCNCC1`, the melting point is reported as 230 to 233 °C.
In the case of `COC(=O)c1ccc(CBr)c(NC(=O)c2ccc(C(C)(C)C)cc2C(=O)OC(C)(C)C)c1`, the melting point is reported as 135 °C.
For `COc1ccc(C(=C/C=C/C(=O)NCCCOc2cccnc2)c2ccc(OC)cc2)cc1`, the melting point was 146 to 147 °C.
With `COc1ccc(C(=O)Nc2ccc(F)cc2)cc1NCc1cccs1` the melting point was 179 to 181 °C.
Compound `Cc1c(N2CC3(CC3)[C@](C)(N)C2)ccc2c(=O)c(C(=O)O)cn(C3CC3)c12` has a melting point of 227 to 230 °C.
For `CCC1(CC)C(=O)N(C(C)(C)C)CC(C)(C)N1OC(C)(C)C#N`, the melting point was 68 to 71 °C.
With `CC(C)(C)c1ccc(-c2ccc3nncn3n2)cc1` the melting point was 270 to 275 °C.
`CCCNC(=O)C1(CC=Cc2ccc([N+](=O)[O-])cc2)c2ccccc2-c2ccccc21` gave a melting point of 143 to 146 °C.
`Nc1c(-c2cc(Cl)ccc2O)c2cc(C(F)(F)F)ccc2[nH]c1=O` showed a melting point of 233 to 235 °C.
`CN(C)CCCCCCOc1ccc(C(=O)c2ccc(F)cc2)cc1` showed a melting point of 37 to 38 °C.
For `CC(=O)C1=C(O)C(=C(C)Nc2ccccc2N)C(=O)OC1=O`, the melting point was 179 to 181 °C.
In the case of `CC(=O)c1ccc(OCc2cccc(N)c2)cc1O`, the melting point is reported as 153 to 154 °C.
Work on `CC(CNC(=O)Cc1ccccc1)Oc1ccccc1` (stereo unspecified) yielded a melting point of 94 to 96 °C.
Work on `O=C(O)C(=O)c1ccc(OCC(=O)N2CCOCC2)cc1` yielded a melting point of 182 to 184 °C.
Work on `CC(=O)Oc1n[nH]c(=O)c2nc3cc(Cl)ccc3c(O)c12` yielded a melting point greater than 300 °C.
`CN1CCN(CC/C=C/c2cc3ncc(C#N)c(Nc4ccc(Sc5nccn5C)c(Cl)c4)c3cc2F)CC1` gave a melting point of 188 to 194 °C.
For `CNc1cc(C)c(O)c(C)c1C`, the melting point was 120 to 122 °C.
Work on `COc1ccc(-c2nc(C)[nH]c3cc(-c4ccccc4)nc2-3)cc1` yielded a melting point of 225 to 227 °C.
Compound `CN1CCCCc2cc(Nc3ncc(Cl)c(N[C@@H]4CCCC[C@H]4NS(C)(=O)=O)n3)ccc21` has a melting point of 102 to 104 °C.
For `CON=C(c1ccccc1COc1ccc(Cl)cc1)c1ncnn1C`, the melting point was 113 to 114 °C.
For `CC(C)(C)S(=O)(=O)C(=[N+]=[N-])S(=O)(=O)C(C)(C)C`, the melting point was 121 to 122 °C.
In the case of `CC(C)(C)OC(=O)NN(Cc1ccc(-c2cnccn2)cc1)C[C@H](O)[C@@H](N)Cc1ccccc1`, the melting point is reported as 146 to 148 °C.
With `CC(=O)c1ccc(C=CC(=O)NCCO)cc1` the melting point was 124 to 125 °C.
For `CC(C)(C)C(=O)C(C(Cl)C(Cl)(Cl)Cl)n1cncn1` (stereo unspecified), the melting point was 111 to 113 °C.
`O=C(NNS(=O)(=O)c1ccccc1)c1ccc(-c2ccccc2)cc1` gave a melting point of 216 to 219 °C.
For `CC(C)(C)C12OOC1(c1cc3cc(O[Si](C)(C)C(C)(C)C)ccc3s1)OCC2(C)C` (stereo unspecified), the melting point was 125 to 126 °C.
`O=C1NC(=O)C(c2cccc(C(F)(F)F)c2)O1` (stereo unspecified) gave a melting point of 93 to 96 °C.
For `Cc1oc(-c2ccco2)nc1COc1ccc(COc2nn(Cc3ccccc3)cc2C(=O)O)cc1-c1ccccc1`, the melting point was 181 to 182 °C.
With `CC(NC(=O)NC1N=C(c2ccccc2)c2ccccc2N(C)C1=O)c1ccccc1` (stereo unspecified) the melting point was 146 to 150 °C.
For `CCSc1ncccc1C(=O)N1CCC(=O)c2ccc(Cl)cc21`, the melting point was 120 to 123 °C.
For `Cc1ccc(-c2cn3cc(-c4cccc(COc5ccc(Cl)cc5)c4)ccc3n2)cc1`, the melting point was 182 to 184 °C.
In the case of `O=C1c2ccccc2C(=O)N1OCc1cnn(C(c2ccccc2)(c2ccccc2)c2ccccc2)c1`, the melting point is reported as 186 to 188 °C.
With `Cn1c(C(=O)N2CCCC2)cc2cc(OCCNCC(O)COc3ccccc3)ccc21` (stereo unspecified) the melting point was 130 °C.
`NC(=O)C(c1ccc([N+](=O)[O-])cc1)c1ccccn1` (racemic) gave a melting point of 155 to 156 °C.
Work on `CCOC(=O)CC(=O)c1cc(OC)c(OC)c([N+](=O)[O-])c1` yielded a melting point of 67 to 68 °C.
`COc1ccc(C=CC2=NN=C(C)Cc3cc(OC)c(OC)cc32)c(OC)c1` gave a melting point of 148 to 150 °C.
For `CC(C)(NC(=O)c1cc2c(n(CC3CCCCC3)c1=O)CCCCCC2)C(=O)O[C@H]1CO[C@H](c2ccccc2)OC1`, the melting point was 166 to 168 °C.
For `N#Cc1ccc(-c2ccc(-c3nc(N)nc(N)n3)cc2)cc1`, the melting point was greater than 260 °C.
For `Clc1cccc(-c2nc3ccccn3c2-c2ccnc(-c3ccc(OCCN4CCCC4)cc3)c2)c1`, the melting point was 298 °C.
